From ChEMBL document CHEMBL2385055, “Optimization of a 1,5-dihydrobenzo[b][1,4]diazepine-2,4-dione series of HIV capsid assembly inhibitors 2: structure-activity relationships (SAR) of the C3-phenyl moiety” (Bioorg Med Chem Lett, 2013)

Assays:
[1] = Cytotoxicity against human C8166 cells; type: cell-based
[2] = test system: Human immunodeficiency virus 1; assay: Antiviral activity against HIV1 infected in human C8166 cells assessed as inhibition of viral replication after 2 days by luciferase assay; type: functional, organism-based; details: Human immunodeficiency virus 1, C8166, 48 h
[3] = Induction of HIV1 NL4-3 nucleocapsid protein disassembly expressed in expressed in Escherichia coli BL21 (DE3) using 5'-end fluorescein labeled (TG)25 oligonucleotide after 2 hrs by fluorescence assay; set-up: species or system Human immunodeficiency virus 1
[4] = Inhibition of HIV1 NL4-3 nucleocapsid protein assembly expressed in expressed in Escherichia coli BL21 (DE3) using 5'-end fluorescein labeled (TG)25 oligonucleotide after 2 hrs by fluorescence assay; set-up: species or system Human immunodeficiency virus 1
[5] = Volume of distribution at steady state in iv dosed rat; type: ADME, organism-based; details: in vivo, read-out: Vdss
Rattus norvegicus = assay: Total clearance in iv dosed rat relative to liver blood perfusion rate; type: ADME, organism-based; details: in vivo
[6] = Half life in iv dosed rat; type: ADME, organism-based; details: in vivo
Cytochrome P450 2D6 = Cytochrome P450 2D6 (Homo sapiens, UniProt P10635); assay: Inhibition of CYP2D6 (unknown origin); type: ADME
Cytochrome P450 2D6, sequence (P10635 whole entry): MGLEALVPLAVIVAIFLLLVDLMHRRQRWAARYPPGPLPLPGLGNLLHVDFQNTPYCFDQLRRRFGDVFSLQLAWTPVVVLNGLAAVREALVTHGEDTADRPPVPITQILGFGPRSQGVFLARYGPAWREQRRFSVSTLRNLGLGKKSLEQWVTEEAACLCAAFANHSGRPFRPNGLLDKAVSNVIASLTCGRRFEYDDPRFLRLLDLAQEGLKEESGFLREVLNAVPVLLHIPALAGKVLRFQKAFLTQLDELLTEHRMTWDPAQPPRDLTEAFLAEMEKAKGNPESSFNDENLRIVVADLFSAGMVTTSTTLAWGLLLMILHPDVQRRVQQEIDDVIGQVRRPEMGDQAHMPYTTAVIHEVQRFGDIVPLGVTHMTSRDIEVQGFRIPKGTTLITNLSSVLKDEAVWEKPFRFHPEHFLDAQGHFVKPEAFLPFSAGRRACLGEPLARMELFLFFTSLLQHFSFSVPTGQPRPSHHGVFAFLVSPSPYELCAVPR

Cytochrome P450 3A4 = Cytochrome P450 3A4 (Homo sapiens, UniProt P08684); assay: Inhibition of CYP3A4 (unknown origin); type: ADME
Cytochrome P450 3A4, sequence (P08684 whole entry): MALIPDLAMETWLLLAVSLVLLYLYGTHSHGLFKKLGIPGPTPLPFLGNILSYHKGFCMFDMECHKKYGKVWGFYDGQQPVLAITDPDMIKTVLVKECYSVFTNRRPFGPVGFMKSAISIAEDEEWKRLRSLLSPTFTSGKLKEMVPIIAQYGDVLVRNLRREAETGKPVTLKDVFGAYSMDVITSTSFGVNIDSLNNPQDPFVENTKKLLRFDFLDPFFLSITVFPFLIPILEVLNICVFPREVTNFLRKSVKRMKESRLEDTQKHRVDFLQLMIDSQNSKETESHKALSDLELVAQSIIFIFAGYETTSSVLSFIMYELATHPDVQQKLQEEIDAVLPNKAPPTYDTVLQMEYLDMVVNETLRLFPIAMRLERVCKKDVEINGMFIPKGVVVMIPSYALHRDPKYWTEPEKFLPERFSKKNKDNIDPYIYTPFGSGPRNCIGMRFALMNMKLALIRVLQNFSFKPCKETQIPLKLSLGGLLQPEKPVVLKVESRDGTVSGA

[7] = Half life in human liver microsomes; type: ADME, Microsome
[8] = Half life in rat liver microsomes; type: ADME, Microsome
[9] = Permeability across human Caco2 cells; type: ADME, cell-based; details: Caco-2, read-out: permeability

Compound: CCN1C(=O)C(c2ccc(-c3ccncc3)cc2)C(=O)N(c2ccccc2)c2cc(C(F)(F)F)ccc21 (stereo not given)
- CC50 [1]: 15000 nM
- EC50 [2]: 570 nM
- IC50 [3]: 210 nM
- IC50 [4]: 390 nM

Compound: CCN1C(=O)C(c2ccccc2)C(=O)N(c2ccccc2)c2cc(C(F)(F)F)ccc21 (stereo not given)
- IC50 [3]: 480 nM
- IC50 [4]: 730 nM

Compound: CCN1C(=O)C2(CCc3cc(O)c(-c4cnn(C)c4)cc32)C(=O)N(c2ccccc2)c2cc(C(F)(F)F)ccc21 (stereo not given)
- EC50 [2]: 300 nM
- IC50 [3]: 130 nM

Compound: CCN1C(=O)C(c2ccc(-c3cccnc3)cc2)C(=O)N(c2ccccc2)c2cc(C(F)(F)F)ccc21 (stereo not given)
- CC50 [1]: 7000 nM
- EC50 [2]: 400 nM
- IC50 [3]: 320 nM
- IC50 [4]: 400 nM

Compound: CCN1C(=O)C(c2ccccc2-c2ccncc2)C(=O)N(c2ccccc2)c2cc(C(F)(F)F)ccc21 (stereo not given)
- IC50 [4]: > 7200 nM

Compound: CCN1C(=O)C(c2cccc(-c3ccnn3C)c2)C(=O)N(c2ccccc2)c2cc(C(F)(F)F)ccc21 (stereo not given)
- CC50 [1]: 30000 nM
- EC50 [2]: 990 nM
- IC50 [3]: 300 nM
- IC50 [4]: 670 nM

Compound: COc1ccc(C2C(=O)N(C)c3ccc(C(F)(F)F)cc3N(c3ccccc3)C2=O)cc1 (stereo not given)
- EC50 [2]: 3200 nM
- IC50 [4]: 1100 nM

Compound: CCCn1cc(-c2cc(C3C(=O)N(CC)c4ccc(C(F)(F)F)cc4N(c4ccccc4)C3=O)cc(OC)c2O)cn1 (stereo not given)
- Vd [5]: 15 L/kg
- CL (Rattus norvegicus): 50%
- half-life [6]: 4.8 h
- INH (Cytochrome P450 2D6): > 30 µM
- INH (Cytochrome P450 3A4): 3.6 µM
- half-life [7]: 1.43 h
- half-life [8]: 1.12 h
- Papp [9]: 9.9 ×10⁻⁶ cm/s
- EC50 [2]: 70 nM
- IC50 [3]: 160 nM

Compound: CCN1C(=O)C(c2cccc(-c3ccncc3)c2)C(=O)N(c2ccccc2)c2cc(C(F)(F)F)ccc21 (stereo not given)
- CC50 [1]: 17000 nM
- EC50 [2]: 790 nM
- IC50 [3]: 190 nM
- IC50 [4]: 530 nM

Compound: CCN1C(=O)N(c2ccc(O)c(-c3cnn(C)c3)c2)C(=O)N(c2ccccc2)c2cc(C(F)(F)F)ccc21
- EC50 [2]: 240 nM
- IC50 [3]: 120 nM

Compound: COc1ccccc1C1C(=O)N(C)c2ccc(C(F)(F)F)cc2N(c2ccccc2)C1=O (stereo not given)
- EC50 [2]: 2700 nM
- IC50 [4]: 710 nM

Compound: CN1C(=O)C(c2ccccc2)C(=O)N(c2ccccc2)c2cc(C(F)(F)F)ccc21 (stereo not given)
- IC50 [3]: 680 nM

Compound: CCN1C(=O)C(c2ccc(O)c(OC)c2)C(=O)N(c2ccccc2)c2cc(C(F)(F)F)ccc21 (stereo not given)
- CC50 [1]: 42000 nM
- EC50 [2]: 530 nM
- IC50 [3]: 110 nM
- IC50 [4]: 590 nM

Compound: CCN1C(=O)C(c2cc(-c3cn[nH]c3)c(O)cc2O)C(=O)N(c2ccccc2)c2cc(C(F)(F)F)ccc21 (stereo not given)
- INH (Cytochrome P450 2D6): 8.9 µM
- INH (Cytochrome P450 3A4): 4.8 µM
- half-life [7]: > 5 h
- half-life [8]: 0.25 h
- Papp [9]: < 0.1 ×10⁻⁶ cm/s
- EC50 [2]: 130 nM
- IC50 [3]: 50 nM

Compound: CCN1C(=O)C(c2ccc(-c3cnc(OC)nc3)cc2)C(=O)N(c2ccccc2)c2cc(C(F)(F)F)ccc21 (stereo not given)
- CC50 [1]: > 20000 nM
- EC50 [2]: 620 nM
- IC50 [3]: 270 nM
- IC50 [4]: 450 nM

Compound: CCN1C(=O)C(c2cccc(-c3cccnc3)c2)C(=O)N(c2ccccc2)c2cc(C(F)(F)F)ccc21 (stereo not given)
- CC50 [1]: 20000 nM
- EC50 [2]: 1000 nM
- IC50 [4]: 480 nM

Compound: CCN1C(=O)C(c2ccc(O)c(-c3cnn(C)c3)c2)C(=O)N(c2ccccc2)c2cc(C(F)(F)F)ccc21 (stereo not given)
- INH (Cytochrome P450 2D6): > 30 µM
- INH (Cytochrome P450 3A4): 5.7 µM
- half-life [7]: 2 h
- Papp [9]: < 0.1 ×10⁻⁶ cm/s
- EC50 [2]: 190 nM
- IC50 [3]: 120 nM

Compound: CCN1C(=O)C(c2ccc(-c3cnco3)cc2)C(=O)N(c2ccccc2)c2cc(C(F)(F)F)ccc21 (stereo not given)
- CC50 [1]: > 7000 nM
- EC50 [2]: 1100 nM
- IC50 [3]: 470 nM
- IC50 [4]: 760 nM

Compound: CCN1C(=O)C(c2ccc(O)cc2)C(=O)N(c2ccccc2)c2cc(C(F)(F)F)ccc21 (stereo not given)
- EC50 [2]: 1000 nM
- IC50 [3]: 180 nM
- IC50 [4]: 400 nM

Compound: CCN1C(=O)C(c2cc(-c3cnn(C)c3)ccc2O)C(=O)N(c2ccccc2)c2cc(C(F)(F)F)ccc21 (stereo not given)
- INH (Cytochrome P450 2D6): > 30 µM
- INH (Cytochrome P450 3A4): 1.7 µM
- half-life [7]: 2.5 h
- Papp [9]: 4.3 ×10⁻⁶ cm/s
- EC50 [2]: 180 nM
- IC50 [3]: 170 nM

Compound: CCN1C(=O)C(c2cccc(-c3cnn(C)c3)c2)C(=O)N(c2ccccc2)c2cc(C(F)(F)F)ccc21 (stereo not given)
- CC50 [1]: 20000 nM
- EC50 [2]: 710 nM
- IC50 [3]: 130 nM
- IC50 [4]: 630 nM

Compound: CCN1C(=O)C(c2cc(-c3cnn(C)c3)c(O)cc2O)C(=O)N(c2ccccc2)c2cc(C(F)(F)F)ccc21 (stereo not given)
- INH (Cytochrome P450 2D6): 13 µM
- INH (Cytochrome P450 3A4): 4.5 µM
- half-life [7]: 1.85 h
- half-life [8]: 0.183 h
- Papp [9]: 7.7 ×10⁻⁶ cm/s
- EC50 [2]: 140 nM
- IC50 [3]: 100 nM

Compound: COc1cccc(C2C(=O)N(C)c3ccc(C(F)(F)F)cc3N(c3ccccc3)C2=O)c1 (stereo not given)
- EC50 [2]: 1200 nM
- IC50 [4]: 550 nM

Compound: CCN1C(=O)C2(CCc3c2ccc(O)c3-c2cnn(C)c2)C(=O)N(c2ccccc2)c2cc(C(F)(F)F)ccc21 (stereo not given)
- EC50 [2]: 780 nM
- IC50 [3]: 200 nM
